Reference: patent publication US20120122860A1, “SOLID FORMS OF SULFONAMIDES AND AMINO ACIDS” (Plexxikon, Inc., priority 2009, published 2012)

How the values were obtained:
[1] = biological target: B-Raf (Homo sapiens, UniProt P15056); assay: Kinase activity assay, B-Raf; assay type: biochemical; conditions: read-out: activity toward kinase B-Raf, IC50
[2] = biological target: B-Raf V600E (Homo sapiens, UniProt P15056, V600E); assay: Kinase activity assay, B-Raf V600E; assay type: biochemical; conditions: read-out: activity toward kinase B-Raf V600E, IC50
[3] = biological target: Kdr (Homo sapiens, UniProt P35968); assay: Kinase activity assay, Kdr
[4] = biological target: Kit (Homo sapiens, UniProt P10721); assay: Kinase activity assay, Kit
[5] = biological target: C-Raf (Homo sapiens, UniProt P04049); assay: Kinase activity assay, C-Raf
[6] = biological target: Src (Homo sapiens, UniProt P12931); assay: Kinase activity assay, Src

Measured: IC50

C-Raf, sequence (P04049 whole entry): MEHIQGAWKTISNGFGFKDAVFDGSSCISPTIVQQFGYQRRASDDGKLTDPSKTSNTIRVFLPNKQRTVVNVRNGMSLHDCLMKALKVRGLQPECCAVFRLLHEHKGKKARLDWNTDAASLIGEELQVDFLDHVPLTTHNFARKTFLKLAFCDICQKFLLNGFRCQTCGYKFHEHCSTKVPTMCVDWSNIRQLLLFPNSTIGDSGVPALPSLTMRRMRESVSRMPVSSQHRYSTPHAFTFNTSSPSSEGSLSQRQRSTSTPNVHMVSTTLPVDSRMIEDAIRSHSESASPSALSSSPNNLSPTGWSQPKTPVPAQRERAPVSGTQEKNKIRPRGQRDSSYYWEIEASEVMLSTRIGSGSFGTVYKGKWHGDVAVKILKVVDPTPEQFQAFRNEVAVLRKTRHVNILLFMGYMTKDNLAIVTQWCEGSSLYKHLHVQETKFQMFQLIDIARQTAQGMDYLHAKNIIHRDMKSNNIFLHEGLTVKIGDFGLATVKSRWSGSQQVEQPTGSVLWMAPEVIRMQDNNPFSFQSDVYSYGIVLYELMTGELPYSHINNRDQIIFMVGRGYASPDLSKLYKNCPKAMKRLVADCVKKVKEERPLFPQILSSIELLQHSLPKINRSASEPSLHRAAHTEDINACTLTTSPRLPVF
B-Raf V600E, sequence (P15056 whole entry V600E): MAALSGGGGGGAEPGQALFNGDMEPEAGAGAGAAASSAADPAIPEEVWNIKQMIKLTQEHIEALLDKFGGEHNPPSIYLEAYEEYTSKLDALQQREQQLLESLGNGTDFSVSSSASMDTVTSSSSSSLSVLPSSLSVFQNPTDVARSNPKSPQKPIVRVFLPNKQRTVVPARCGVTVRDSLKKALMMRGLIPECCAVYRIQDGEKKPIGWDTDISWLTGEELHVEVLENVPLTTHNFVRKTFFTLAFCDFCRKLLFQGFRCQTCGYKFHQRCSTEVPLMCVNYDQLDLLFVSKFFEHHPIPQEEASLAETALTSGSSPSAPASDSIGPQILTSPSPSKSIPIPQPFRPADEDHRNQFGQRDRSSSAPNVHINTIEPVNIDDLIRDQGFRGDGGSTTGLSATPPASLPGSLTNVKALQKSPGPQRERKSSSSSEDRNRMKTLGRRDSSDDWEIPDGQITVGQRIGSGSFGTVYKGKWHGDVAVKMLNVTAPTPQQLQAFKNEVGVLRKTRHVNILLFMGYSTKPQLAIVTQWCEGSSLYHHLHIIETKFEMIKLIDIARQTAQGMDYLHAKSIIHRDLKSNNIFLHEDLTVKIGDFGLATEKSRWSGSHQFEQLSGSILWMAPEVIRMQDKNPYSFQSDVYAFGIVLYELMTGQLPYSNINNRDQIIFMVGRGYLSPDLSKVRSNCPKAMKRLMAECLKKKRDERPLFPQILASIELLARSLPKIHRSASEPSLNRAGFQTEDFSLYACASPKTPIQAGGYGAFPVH
Src, sequence (P12931 whole entry): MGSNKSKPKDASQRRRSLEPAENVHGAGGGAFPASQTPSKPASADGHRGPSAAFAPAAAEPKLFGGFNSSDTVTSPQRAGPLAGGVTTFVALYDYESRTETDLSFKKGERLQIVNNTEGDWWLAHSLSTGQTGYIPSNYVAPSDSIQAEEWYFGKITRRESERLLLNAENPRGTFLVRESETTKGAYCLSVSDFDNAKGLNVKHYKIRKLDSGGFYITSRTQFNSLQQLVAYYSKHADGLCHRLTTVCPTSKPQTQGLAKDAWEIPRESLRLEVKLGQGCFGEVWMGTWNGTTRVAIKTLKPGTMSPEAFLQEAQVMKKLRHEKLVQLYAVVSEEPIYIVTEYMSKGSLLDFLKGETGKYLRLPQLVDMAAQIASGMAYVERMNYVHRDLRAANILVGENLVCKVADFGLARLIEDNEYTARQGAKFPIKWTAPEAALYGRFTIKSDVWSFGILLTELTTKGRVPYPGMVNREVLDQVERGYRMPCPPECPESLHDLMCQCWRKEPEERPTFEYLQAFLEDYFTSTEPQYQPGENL
B-Raf, sequence (P15056 whole entry): as the sequence (P15056 whole entry V600E) above, with E600V counted along it
Kdr, sequence (P35968 20-1356): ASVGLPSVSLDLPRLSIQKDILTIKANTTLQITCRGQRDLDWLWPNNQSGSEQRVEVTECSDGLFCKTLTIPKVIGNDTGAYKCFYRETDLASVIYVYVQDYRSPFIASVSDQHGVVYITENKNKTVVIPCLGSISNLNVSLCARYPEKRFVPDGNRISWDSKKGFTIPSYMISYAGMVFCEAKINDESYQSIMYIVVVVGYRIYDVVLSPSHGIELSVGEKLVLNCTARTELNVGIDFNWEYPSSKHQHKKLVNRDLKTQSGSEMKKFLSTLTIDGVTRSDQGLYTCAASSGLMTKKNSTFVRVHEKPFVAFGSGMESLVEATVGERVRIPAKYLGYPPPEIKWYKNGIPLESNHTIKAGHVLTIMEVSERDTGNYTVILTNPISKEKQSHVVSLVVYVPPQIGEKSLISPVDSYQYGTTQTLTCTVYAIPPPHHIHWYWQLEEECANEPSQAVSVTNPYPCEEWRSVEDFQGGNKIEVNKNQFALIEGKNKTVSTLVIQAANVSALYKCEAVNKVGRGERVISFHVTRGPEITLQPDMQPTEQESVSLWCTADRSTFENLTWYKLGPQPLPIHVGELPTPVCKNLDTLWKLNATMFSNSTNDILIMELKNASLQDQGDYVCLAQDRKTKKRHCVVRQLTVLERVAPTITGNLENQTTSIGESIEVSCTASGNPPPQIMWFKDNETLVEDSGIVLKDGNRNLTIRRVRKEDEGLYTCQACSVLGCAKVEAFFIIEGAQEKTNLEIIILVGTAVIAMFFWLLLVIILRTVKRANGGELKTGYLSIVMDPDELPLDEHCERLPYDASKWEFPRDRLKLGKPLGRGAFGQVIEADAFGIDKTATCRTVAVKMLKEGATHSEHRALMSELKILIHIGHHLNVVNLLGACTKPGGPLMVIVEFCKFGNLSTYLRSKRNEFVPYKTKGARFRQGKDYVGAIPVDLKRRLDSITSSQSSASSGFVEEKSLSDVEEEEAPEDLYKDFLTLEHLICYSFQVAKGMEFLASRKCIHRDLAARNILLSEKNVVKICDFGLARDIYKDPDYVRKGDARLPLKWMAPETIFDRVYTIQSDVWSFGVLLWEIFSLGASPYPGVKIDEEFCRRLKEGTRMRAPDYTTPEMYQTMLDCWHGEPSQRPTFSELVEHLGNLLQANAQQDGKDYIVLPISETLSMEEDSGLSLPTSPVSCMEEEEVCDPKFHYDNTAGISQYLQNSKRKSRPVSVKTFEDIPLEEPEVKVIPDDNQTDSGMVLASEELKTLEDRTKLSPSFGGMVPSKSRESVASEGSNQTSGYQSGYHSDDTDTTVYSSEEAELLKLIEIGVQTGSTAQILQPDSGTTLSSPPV
Kit, sequence (P10721 26-976): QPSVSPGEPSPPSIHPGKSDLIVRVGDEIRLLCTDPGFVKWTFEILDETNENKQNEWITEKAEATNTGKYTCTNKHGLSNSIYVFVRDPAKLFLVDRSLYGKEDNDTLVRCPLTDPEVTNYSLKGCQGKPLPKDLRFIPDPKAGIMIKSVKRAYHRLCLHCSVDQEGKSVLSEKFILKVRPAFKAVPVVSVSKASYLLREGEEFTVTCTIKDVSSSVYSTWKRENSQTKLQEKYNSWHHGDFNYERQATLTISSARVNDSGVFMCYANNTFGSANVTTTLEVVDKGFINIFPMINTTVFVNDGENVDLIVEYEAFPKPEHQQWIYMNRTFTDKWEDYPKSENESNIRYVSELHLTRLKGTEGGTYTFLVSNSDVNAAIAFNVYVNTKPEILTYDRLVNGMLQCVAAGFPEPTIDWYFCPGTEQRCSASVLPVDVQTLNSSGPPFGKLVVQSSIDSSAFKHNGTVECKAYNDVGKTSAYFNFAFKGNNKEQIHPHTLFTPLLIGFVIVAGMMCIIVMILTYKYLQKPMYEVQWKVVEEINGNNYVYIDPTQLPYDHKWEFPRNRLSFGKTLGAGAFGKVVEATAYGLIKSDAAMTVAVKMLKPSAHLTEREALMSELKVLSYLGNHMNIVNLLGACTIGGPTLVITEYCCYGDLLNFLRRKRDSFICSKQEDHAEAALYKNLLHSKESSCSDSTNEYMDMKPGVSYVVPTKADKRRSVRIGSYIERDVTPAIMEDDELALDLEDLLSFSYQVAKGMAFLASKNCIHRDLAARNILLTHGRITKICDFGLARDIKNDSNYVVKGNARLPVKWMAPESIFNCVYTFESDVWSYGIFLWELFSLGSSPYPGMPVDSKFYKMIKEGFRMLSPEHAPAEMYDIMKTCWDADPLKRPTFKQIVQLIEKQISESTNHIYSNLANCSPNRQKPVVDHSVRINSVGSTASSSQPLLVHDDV

O=C(c1cccc(NS(=O)(=O)c2ccc(C(F)(F)F)cc2)c1F)c1c[nH]c2ncc(Cl)cc12 [P-2058, N-[3-(5-Chloro-1H-pyrrolo[2,3-b]pyridine-3-carbonyl)-2-fluoro-phenyl]-4-trifluoromethyl-benzenesulfonamide]
not listed: [6]
≤ 10 µM: all other assays above

COc1ccnc2[nH]cc(C(=O)c3c(F)ccc(NS(=O)(=O)c4cccnc4)c3F)c12 [P-2073, Pyridine-3-sulfonic acid [2,4-difluoro-3-(4-methoxy-1H-pyrrolo[2,3-b]pyridine-3-carbonyl)-phenyl]-amide]
≤ 10 µM: [1] | [2] | [6] | [5]

Cn1cc(S(=O)(=O)Nc2cccc(C(=O)c3c[nH]c4ncc(C#N)cc34)c2F)cn1 [P-2090, 1-Methyl-1H-pyrazole-4-sulfonic acid [3-(5-cyano-1H-pyrrolo[2,3-b]pyridine-3-carbonyl)-2-fluoro-phenyl]-amide]
≤ 10 µM: [1] | [2] | [5]

N#Cc1cnc2[nH]cc(C(=O)c3c(F)ccc(NS(=O)(=O)Cc4cccnc4)c3F)c2c1 [P-2094, N-[3-(5-Cyano-1H-pyrrolo[2,3-b]pyridine-3-carbonyl)-2,4-difluoro-phenyl]-C-pyridin-3-yl-methanesulfonamide]
≤ 10 µM: [2] | [3] | [4]

O=C(c1cc(NS(=O)(=O)c2ccc(OC(F)(F)F)cc2)ccc1F)c1c[nH]c2ncc(Cl)cc12 [P-2109, N-[3-(5-Chloro-1H-pyrrolo[2,3-b]pyridine-3-carbonyl)-4-fluoro-phenyl]-4-trifluoromethoxy-benzenesulfonamide]
≤ 10 µM: [1] | [3] | [4]

O=C(c1cccc(NS(=O)(=O)c2ccc(C(F)(F)F)cc2)c1)c1c[nH]c2ncc(Cl)cc12 [P-2126, N-[3-(5-Chloro-1H-pyrrolo[2,3-b]pyridine-3-carbonyl)-phenyl]-4-trifluoromethyl-benzenesulfonamide]
≤ 10 µM: [1] | [3] | [4]

CCCS(=O)(=O)Nc1ccc(F)c(C(=O)c2c[nH]c3ncc(-c4c(C)noc4C)cc23)c1F [P-2156, Propane-1-sulfonic acid {3-[5-(3,5-dimethyl-isoxazol-4-yl)-1H-pyrrolo[2,3-b]pyridine-3-carbonyl]-2,4-difluoro-phenyl}-amide]
≤ 10 µM: [2] | [3] | [6]

CCCS(=O)(=O)Nc1ccc(F)c(C(=O)c2c[nH]c3ncc(-c4ccc(Cl)c(C(F)(F)F)c4)cc23)c1F [P-2171, Propane-1-sulfonic acid {3-[5-(4-chloro-3-trifluoromethyl-phenyl)-1H-pyrrolo[2,3-b]pyridine-3-carbonyl]-2,4-difluoro-phenyl}-amide]
≤ 10 µM: [1] | [2] | [3] | [6]

CCCS(=O)(=O)Nc1ccc(F)c(C(=O)c2c[nH]c3ncc(-c4c(-c5ccccc5)noc4C)cc23)c1F [P-2191, Propane-1-sulfonic acid {2,4-difluoro-3-[5-(5-methyl-3-phenyl-isoxazol-4-yl)-1H-pyrrolo[2,3-b]pyridine-3-carbonyl]-phenyl}-amide]
≤ 10 µM: [1] | [2] | [3] | [6]

CCCS(=O)(=O)Nc1ccc(F)c(C(=O)c2c[nH]c3ncc(-c4ccc(S(=O)(=O)N5CCCC5)cc4)cc23)c1F [P-2227, Propane-1-sulfonic acid (2,4-difluoro-3-{5-[4-(pyrrolidine-1-sulfonyl)-phenyl]-1H-pyrrolo[2,3-b]pyridine-3-carbonyl}-phenyl)-amide]
≤ 10 µM: [1] | [2] | [3] | [5]

CCCS(=O)(=O)Nc1ccc(F)c(C(=O)c2c[nH]c3ncc(C(=O)N(C)C)cc23)c1F [P-2237, 3-[2,6-Difluoro-3-(propane-1-sulfonylamino)-benzoyl]-1H-pyrrolo[2,3-b]pyridine-5-carboxylic acid dimethyl amide]
≤ 10 µM: [1] | [3] | [6]

CCS(=O)(=O)Nc1ccc(F)c(C(=O)c2c[nH]c3ncc(C#N)cc23)c1F [P-2281, Ethanesulfonic acid [3-(5-cyano-1H-pyrrolo[2,3-b]pyridine-3-carbonyl)-2,4-difluoro-phenyl]-amide]
≤ 10 µM: [1] | [2] | [3] | [5]

COc1ccnc2[nH]cc(C(=O)c3c(F)ccc(NS(C)(=O)=O)c3F)c12 [P-2293, N-[2,4-Difluoro-3-(4-methoxy-1H-pyrrolo[2,3-b]pyridine-3-carbonyl)-phenyl]-methanesulfonamide]
≤ 10 µM: [2] | [3] | [4] | [5]

COc1ccnc2[nH]cc(C(=O)c3c(F)ccc(NS(=O)(=O)CC(F)(F)F)c3F)c12 [P-2340, 2,2,2-Trifluoro-ethanesulfonic acid [2,4-difluoro-3-(4-methoxy-1H-pyrrolo[2,3-b]pyridine-3-carbonyl)-phenyl]-amide]
≤ 10 µM: [1] | [2] | [6] | [5]

CCCS(=O)(=O)Nc1cccc(C(=O)c2c[nH]c3ncc(C)cc23)c1F [P-2403, Propane-1-sulfonic acid [2-fluoro-3-(5-methyl-1H-pyrrolo[2,3-b]pyridine-3-carbonyl)-phenyl]-amide]
≤ 10 µM: [1] | [2] | [3] | [5]

CCCS(=O)(=O)Nc1cccc(C(=O)c2c[nH]c3nccc(C#N)c23)c1F [P-2409, Propane-1-sulfonic acid [3-(4-cyano-1H-pyrrolo[2,3-b]pyridine-3-carbonyl)-2-fluoro-phenyl]-amide]
≤ 10 µM: [1] | [2] | [3] | [5]

CC(C)CS(=O)(=O)Nc1cccc(C(=O)c2c[nH]c3ncc(C#N)cc23)c1F [P-2412, 2-Methyl-propane-1-sulfonic acid [3-(5-cyano-1H-pyrrolo[2,3-b]pyridine-3-carbonyl)-2-fluoro-phenyl]-amide]
≤ 10 µM: [1] | [2] | [5]

CCC(C)S(=O)(=O)Nc1cccc(C(=O)c2c[nH]c3ncc(C#N)cc23)c1F (stereo not drawn) [P-2413, Butane-2-sulfonic acid [3-(5-cyano-1H-pyrrolo[2,3-b]pyridine-3-carbonyl)-2-fluoro-phenyl]-amide]
≤ 10 µM: [1] | [2] | [5]

N#Cc1cnc2[nH]cc(C(=O)c3cccc(NS(=O)(=O)CCC(F)(F)F)c3F)c2c1 [P-2415, 3,3,3-Trifluoro-propane-1-sulfonic acid [3-(5-cyano-1H-pyrrolo[2,3-b]pyridine-3-carbonyl)-2-fluoro-phenyl]-amide]
≤ 10 µM: [1] | [2] | [5]

N#Cc1cnc2[nH]cc(C(=O)c3cccc(NS(=O)(=O)C4CCCCC4)c3F)c2c1 [P-2416, Cyclohexanesulfonic acid [3-(5-cyano-1H-pyrrolo[2,3-b]pyridine-3-carbonyl)-2-fluoro-phenyl]-amide]
≤ 10 µM: [1] | [2] | [5]

N#Cc1cnc2[nH]cc(C(=O)c3cccc(NS(=O)(=O)C4CCC4)c3F)c2c1 [P-2418, Cyclobutanesulfonic acid [3-(5-cyano-1H-pyrrolo[2,3-b]pyridine-3-carbonyl)-2-fluoro-phenyl]-amide]
≤ 10 µM: [1] | [2] | [5]

CN(C)S(=O)(=O)Nc1cccc(C(=O)c2c[nH]c3ncc(C#N)cc23)c1F [P-2419, N,N-dimethylamino-sulfonic acid [3-(5-cyano-1H-pyrrolo[2,3-b]pyridine-3-carbonyl)-2-fluoro-phenyl]-amide]
≤ 10 µM: [2] | [4]

COc1ncc(-c2cnc3[nH]cc(C(=O)c4cccc(NS(=O)(=O)N5CCCC5)c4F)c3c2)cn1 [P-2422, Pyrrolidine-1-sulfonic acid {2-fluoro-3-[5-(2-methoxy-pyrimidin-5-yl)-1H-pyrrolo[2,3-b]pyridine-3-carbonyl]-phenyl}-amide]
≤ 10 µM: [1] | [2] | [3] | [5]

O=C(c1c(F)ccc(NS(=O)(=O)c2ccc(C(F)(F)F)nc2)c1F)c1c[nH]c2ncc(Cl)cc12 [P-2481, 6-Trifluoromethyl-pyridine-3-sulfonic acid [3-(5-chloro-1H-pyrrolo[2,3-b]pyridine-3-carbonyl)-2,4-difluoro-phenyl]-amide]
≤ 10 µM: [1] | [3] | [6] | [5]
